From the OligoGym collection
HELM strings list units from the 5' end as sugar, base in round brackets, then linkage (d deoxyribose, r ribose, m 2'-O-methyl, p phosphodiester). Strings are as the collection lists them; they lack the last nucleoside at the 3' end of the tested compound. [moe] = 2'-O-(2-methoxyethyl) (MOE); [sp] = phosphorothioate linkage; [m5C] = 5-methylcytosine

The substances below were run against UBE3A-ATS (assay: mouse, dose not given). Details: ASO.

Row | Substance | 3 h FOB score [score 0-7]
1 | RNA1{[moe](A)[sp].[moe]([m5C])p.[moe](A)p.[moe]([m5C])p.[moe](T)p.d(T)[sp].d(T)[sp].d([m5C])[sp].d(A)[sp].d(T)[sp].d([m5C])[sp].d(A)[sp].d(G)[sp].d(T)[sp].d(T)[sp].[moe](A)p.[moe](G)p.[moe](T)[sp].[moe]([m5C])}$$$$ (last 3' nucleoside missing) | 1
2 | RNA1{[moe](A)[sp].[moe]([m5C])p.[moe](G)p.[moe]([m5C])[sp].d(A)[sp].d(A)[sp].d(T)[sp].d(G)[sp].d(T)[sp].d(A)[sp].d(T)[sp].d([m5C])[sp].[moe](A)p.[moe](G)p.[moe](G)p.[moe]([m5C])[sp].[moe](A)}$$$$ (last 3' nucleoside missing) | 1
3 | RNA1{[moe](A)[sp].[moe]([m5C])p.[moe](G)p.[moe]([m5C])p.[moe](A)[sp].d(A)[sp].d(T)[sp].d(G)[sp].d(T)[sp].d(A)[sp].d(T)[sp].d([m5C])[sp].d(A)[sp].[moe](G)p.[moe](G)p.[moe]([m5C])[sp].[moe](A)}$$$$ (last 3' nucleoside missing) | 2.3
4 | RNA1{[moe](A)[sp].[moe]([m5C])p.[moe](G)p.[moe]([m5C])p.[moe](A)p.[moe](A)[sp].d(T)[sp].d(G)[sp].d(T)[sp].d(A)[sp].d(T)[sp].d([m5C])[sp].d(A)[sp].d(G)[sp].[moe](G)p.[moe]([m5C])[sp].[moe](A)}$$$$ (last 3' nucleoside missing) | 0
5 | RNA1{[moe](A)[sp].[moe]([m5C])p.[moe](T)p.[moe](A)p.[moe](T)p.d([m5C])[sp].d([m5C])[sp].d(T)[sp].d(G)[sp].d([m5C])[sp].d(A)[sp].d(T)[sp].d([m5C])[sp].d([m5C])[sp].d(G)[sp].[moe](A)p.[moe](G)p.[moe](G)[sp].[moe]([m5C])}$$$$ (last 3' nucleoside missing) | 1
6 | RNA1{[moe](A)[sp].[moe]([m5C])p.[moe](T)p.[moe](G)p.[moe](G)p.d([m5C])[sp].d(A)[sp].d(T)[sp].d(A)[sp].d(T)[sp].d(T)[sp].d([m5C])[sp].d([m5C])[sp].d(G)[sp].d(A)[sp].[moe](T)p.[moe](T)p.[moe](A)[sp].[moe](T)}$$$$ (last 3' nucleoside missing) | 3
7 | RNA1{[moe](A)[sp].[moe]([m5C])p.[moe](T)p.[moe](G)p.[moe](T)p.d(T)[sp].d(A)[sp].d([m5C])[sp].d([m5C])[sp].d(A)[sp].d(A)[sp].d(G)[sp].d(A)[sp].d([m5C])[sp].d(T)[sp].[moe](T)p.[moe]([m5C])p.[moe](A)[sp].[moe](G)}$$$$ (last 3' nucleoside missing) | 3.8
8 | RNA1{[moe](A)[sp].[moe]([m5C])p.[moe](T)p.[moe](G)p.[moe]([m5C])p.[moe](T)p.d(T)[sp].d([m5C])[sp].d(A)[sp].d([m5C])[sp].d([m5C])[sp].d(A)[sp].d(T)[sp].d(T)[sp].d(T)[sp].d(T)[sp].[moe](G)p.[moe](A)[sp].[moe]([m5C])}$$$$ (last 3' nucleoside missing) | 1
9 | RNA1{[moe](A)[sp].[moe]([m5C])p.[moe](T)p.[moe](G)p.[moe]([m5C])p.d(T)[sp].d(T)[sp].d([m5C])[sp].d(A)[sp].d([m5C])[sp].d([m5C])[sp].d(A)[sp].d(T)[sp].d(T)[sp].d(T)[sp].[moe](T)p.[moe](G)p.[moe](A)[sp].[moe]([m5C])}$$$$ (last 3' nucleoside missing) | 1.7
10 | RNA1{[moe](A)[sp].[moe]([m5C])p.[moe](T)p.[moe](G)p.d([m5C])[sp].d(T)[sp].d(T)[sp].d([m5C])[sp].d(A)[sp].d([m5C])[sp].d([m5C])[sp].d(A)[sp].d(T)[sp].d(T)[sp].[moe](T)p.[moe](T)p.[moe](G)p.[moe](A)[sp].[moe]([m5C])}$$$$ (last 3' nucleoside missing) | 1
11 | RNA1{[moe](A)[sp].[moe]([m5C])p.[moe](T)p.[moe](T)p.[moe](T)p.d(A)[sp].d(T)[sp].d(A)[sp].d(G)[sp].d(T)[sp].d(G)[sp].d(T)[sp].d(G)[sp].d(G)[sp].d(A)[sp].[moe](T)p.[moe](G)p.[moe](G)[sp].[moe](T)}$$$$ (last 3' nucleoside missing) | 6.8
12 | RNA1{[moe](A)[sp].[moe]([m5C])p.[moe](T)p.[moe](T)p.[moe](T)p.d([m5C])[sp].d(A)[sp].d(T)[sp].d([m5C])[sp].d(A)[sp].d(G)[sp].d(T)[sp].d(T)[sp].d(A)[sp].d(G)[sp].[moe](T)p.[moe]([m5C])p.[moe](A)[sp].[moe](G)}$$$$ (last 3' nucleoside missing) | 5.2
13 | RNA1{[moe](A)[sp].[moe]([m5C])p.[moe](T)p.[moe](T)p.[moe]([m5C])p.d(A)[sp].d(T)[sp].d([m5C])[sp].d(A)[sp].d(A)[sp].d(T)[sp].d(A)[sp].d(T)[sp].d(T)[sp].d(T)[sp].[moe]([m5C])p.[moe]([m5C])p.[moe]([m5C])[sp].[moe]([m5C])}$$$$ (last 3' nucleoside missing) | 0
14 | RNA1{[moe](A)[sp].[moe]([m5C])p.[moe](T)p.[moe](T)p.[moe]([m5C])p.d(T)[sp].d([m5C])[sp].d(A)[sp].d(T)[sp].d(T)[sp].d([m5C])[sp].d(T)[sp].d([m5C])[sp].d(T)[sp].d([m5C])[sp].[moe]([m5C])p.[moe](A)p.[moe]([m5C])[sp].[moe]([m5C])}$$$$ (last 3' nucleoside missing) | 0
15 | RNA1{[moe](A)[sp].[moe]([m5C])p.[moe](T)p.[moe]([m5C])p.[moe](A)p.d(T)[sp].d([m5C])[sp].d(A)[sp].d(T)[sp].d(G)[sp].d(A)[sp].d(T)[sp].d([m5C])[sp].d(T)[sp].d(T)[sp].[moe](G)p.[moe](G)p.[moe](T)[sp].[moe](A)}$$$$ (last 3' nucleoside missing) | 3
16 | RNA1{[moe](A)[sp].[moe]([m5C])p.[moe]([m5C])p.[moe](A)p.[moe](T)p.d(T)[sp].d(T)[sp].d(T)[sp].d(G)[sp].d(A)[sp].d([m5C])[sp].d([m5C])[sp].d(T)[sp].d(T)[sp].d([m5C])[sp].[moe](T)p.[moe](T)p.[moe](A)[sp].[moe](G)}$$$$ (last 3' nucleoside missing) | 0
17 | RNA1{[moe](A)[sp].[moe]([m5C])p.[moe]([m5C])p.[moe]([m5C])p.[moe]([m5C])p.d(T)[sp].d(A)[sp].d(G)[sp].d(G)[sp].d(A)[sp].d(A)[sp].d(T)[sp].d(A)[sp].d(A)[sp].d(T)[sp].[moe](G)p.[moe](T)p.[moe](T)[sp].[moe](G)}$$$$ (last 3' nucleoside missing) | 2
18 | RNA1{[moe](G)[sp].[moe](A)p.[moe](A)p.[moe](A)p.[moe]([m5C])p.d([m5C])[sp].d(A)[sp].d(G)[sp].d([m5C])[sp].d([m5C])[sp].d(A)[sp].d(G)[sp].d(G)[sp].d(T)[sp].d(G)[sp].[moe](T)p.[moe]([m5C])p.[moe](T)[sp].[moe](T)}$$$$ (last 3' nucleoside missing) | 3
19 | RNA1{[moe](G)[sp].[moe](A)p.[moe](A)p.[moe]([m5C])p.[moe](T)p.d(A)[sp].d(T)[sp].d([m5C])[sp].d([m5C])[sp].d(T)[sp].d(G)[sp].d([m5C])[sp].d(A)[sp].d(T)[sp].d([m5C])[sp].[moe]([m5C])p.[moe](G)p.[moe](A)[sp].[moe](G)}$$$$ (last 3' nucleoside missing) | 4.2
20 | RNA1{[moe](G)[sp].[moe](A)p.[moe](G)p.[moe](A)p.[moe](A)p.d([m5C])[sp].d([m5C])[sp].d([m5C])[sp].d(A)[sp].d([m5C])[sp].d(T)[sp].d(T)[sp].d(G)[sp].d(A)[sp].d(T)[sp].[moe]([m5C])p.[moe](T)p.[moe](A)[sp].[moe](T)}$$$$ (last 3' nucleoside missing) | 3
21 | RNA1{[moe](G)[sp].[moe](A)p.[moe](G)p.[moe](A)p.[moe](T)p.d(A)[sp].d(G)[sp].d(A)[sp].d(A)[sp].d([m5C])[sp].d(A)[sp].d([m5C])[sp].d(T)[sp].d(T)[sp].d([m5C])[sp].[moe](G)p.[moe]([m5C])p.[moe]([m5C])[sp].[moe](G)}$$$$ (last 3' nucleoside missing) | 5
22 | RNA1{[moe](G)[sp].[moe](A)p.[moe](G)p.[moe](A)p.[moe]([m5C])p.d(A)[sp].d(T)[sp].d(G)[sp].d(T)[sp].d(G)[sp].d([m5C])[sp].d([m5C])[sp].d(A)[sp].d(G)[sp].d(T)[sp].[moe](T)p.[moe]([m5C])p.[moe](A)[sp].[moe](A)}$$$$ (last 3' nucleoside missing) | 6
23 | RNA1{[moe](G)[sp].[moe](A)p.[moe](G)p.[moe](T)p.[moe](A)p.d(G)[sp].d(T)[sp].d([m5C])[sp].d(T)[sp].d(A)[sp].d(T)[sp].d(T)[sp].d(G)[sp].d(G)[sp].d(T)[sp].[moe](G)p.[moe](T)p.[moe](T)[sp].[moe]([m5C])}$$$$ (last 3' nucleoside missing) | 5.5
24 | RNA1{[moe](G)[sp].[moe](A)p.[moe](G)p.[moe](T)p.[moe](A)p.d(T)[sp].d(A)[sp].d(T)[sp].d(T)[sp].d(A)[sp].d([m5C])[sp].d([m5C])[sp].d(T)[sp].d([m5C])[sp].d([m5C])[sp].[moe](A)p.[moe](G)p.[moe](G)[sp].[moe](T)}$$$$ (last 3' nucleoside missing) | 1
25 | RNA1{[moe](G)[sp].[moe](A)p.[moe](G)p.[moe]([m5C])[sp].d(T)[sp].d(A)[sp].d(T)[sp].d([m5C])[sp].d(T)[sp].d(G)[sp].d(T)[sp].d(A)[sp].[moe]([m5C])p.[moe](A)p.[moe](A)p.[moe](A)[sp].[moe](A)}$$$$ (last 3' nucleoside missing) | 3.3
26 | RNA1{[moe](G)[sp].[moe](A)p.[moe](G)p.[moe]([m5C])p.[moe](A)p.d(T)[sp].d(T)[sp].d(G)[sp].d(G)[sp].d([m5C])[sp].d(T)[sp].d(T)[sp].d([m5C])[sp].d(A)[sp].d(T)[sp].[moe](A)p.[moe](T)p.[moe](T)[sp].[moe](T)}$$$$ (last 3' nucleoside missing) | 1
